Data on 16 molecules can be found in paper PMC3504066 (PLoS ONE, 2012).

Assay [1] addresses T1, EGFR kinase (Homo sapiens, UniProt P00533).
T1 construct: purchased Promega
In words: In vitro EGFR kinase assay (ADP-Glo Kinase Assay Kit, EGFR Kinase Enzyme System). It counts as biochemical. As to the method:
In vitro kinase inhibitory ability was determined using the ADP-Glo™ Kinase Assay Kit and EGFR Kinase Enzyme System (Promega), following the manufacturer's instructions.

Assay [2] relates to NCI-H1975 cells. In words: Cytotoxicity / cell proliferation (MTT assay) in NCI-H1975 cells. It counts as cell-based. To be noted: for IC50: Homo sapiens, NCI-H1975. As for the experimental part: Cell proliferation was determined using MTT assay. Cell viability was estimated by trypan blue dye exclusion. Externalization of phosphatidylserine was tested using an Annexin V/PI Apoptosis Detection kit (BD Biosciences, San Jose, CA) according to manufacturer's instruction.

Assay [3] relates to A549 cells. Description: Cell proliferation (MTT assay) in A549 cells. It counts as cell-based. As to conditions: wild type EGFR-expressing A549, MTT assay, 48 h, dose-dependent. As for the experimental part:
(§1) Cell proliferation was determined using MTT assay. Cell viability was estimated by trypan blue dye exclusion. Externalization of phosphatidylserine was tested using an Annexin V/PI Apoptosis Detection kit (BD Biosciences, San Jose, CA) according to manufacturer's instruction. After staining with Hoechst 33258 at 10 µg/ml for 10 min, cell death was assessed by a fluorescence microscope (Leica).

For assay [4], the system named is Noxa. Description: Noxa protein expression by Western blot in NCI-H1975 cells. As to conditions: 3 to 4 µM for 24 h. It counts as cell-based. As for the experimental part:
(§2) Cells were suspended in lysis buffer (50 mM Tris-HCl (pH 7.4), 150 mM NaCl, 1% triton X-100, 1% sodium deoxycholate, 0.1% SDS, 1 mM Na3VO4, 1 mM NaF, 1 mM EDTA, 1 mM PMSF, complete protease inhibitor cocktail) and cleared by centrifugation to obtain whole-cell lysates. Equal amounts of samples were separated by SDS-PAGE, transferred to nitrocellulose and immunoblotted with antibody indicated.

Assay [5] relates to NCI-H1975 cells. In words: Apoptosis by Annexin V/PI staining and flow cytometry in NCI-H1975 cells. To be noted: 24 h. It counts as cell-based. As to the method: as §1
Assay [6] deals with NCI-H1975 cells. Description: NCI-H1975 xenograft model in nude mice. It counts as in vivo. To be noted: 30 mg/kg/day oral, 3 weeks; for tumor growth: nude mice with subcutaneous NCI-H1975 tumors. As for the experimental part: All animal studies were conducted according to protocols approved by the Animal Ethics Committee of the Institute of Zoology, Chinese Academy of Sciences, with the approval ID of AEC2011030205. All mice used in this study were bred and maintained in a specific pathogen-free environment. NCI-H1975 cells (2.5×10^6) were injected subcutaneously into the right flank of nude mice. […]. Animals were sacrificed when tumors reached 2 cm or if the mice appeared moribund to prevent unnecessary morbidity to the mice. At the time of the animals' death, tumors were excised; cells were separated and lyzed for Western blotting using anti-Noxa antibody and anti-Actin antibodies. Noxa expression was then quantified by densitometry analysis and normalized against Actin expression.
We tested the in vivo anti-tumor efficacy of V1801. […]. Animals were euthanized when they were treated for 3 weeks and the tumor samples were isolated and imaged (Fig. 6c). Proteins were extracted from tumor samples and Western blot assay was conducted. […]

Assay [7] has as its system NCI-H1975 cells. In words: Combination of V1801 and bortezomib in NCI-H1975 cells (MTT, combination index). It counts as cell-based. To be noted: 24 h. As to the method: as §1
The interaction between compounds was quantified by determining the combination index (CI) calculated by the Chou–Talalay equation [29], [30]. The general equation for the classic isobologram is given by: CI = (D)1/(Dx)1+(D)2/(Dx)2. Where Dx indicates the dose of one compound alone required to produce an effect, (D)1 and (D)2 are the doses of compounds 1 and 2, respectively, necessary to produce the same effect in combination. From this analysis, the combined effects of the two compounds can be summarized as follows: CI<1 indicates synergism; CI = 1 indicates additive effect; and CI>1 indicates antagonism.

Assay [8] has as its system phosphorylated EGFR (p-EGFR). In words: Western blot of phosphorylated EGFR in NCI-H1975 cells. It counts as cell-based. To be noted: 12 h. As for the experimental part:
as §2

Assay [9] has as its system A549 cells. In words: Apoptosis by Annexin V/PI staining and flow cytometry in A549 cells. It counts as cell-based. As to conditions: 24 h. As for the experimental part: as §1
In assay [10] the test system is NCI-H1975 cells. Description: Soft-agar colony formation (clonogenic) assay. It counts as cell-based. To be noted: 3 µM for 12 h, colonies after 2 weeks; compared to gefitinib or vehicle control. An excerpt: To this end, trypsinized cells were suspended in RPMI 1640 medium containing 10% FBS and low-melting-point 0.3% agarose (Amresco, Solon, OH) and subsequently overlaid onto a solidified layer of RPMI 1640 medium containing 10% FBS and 0.6% agarose in 35 mm plate (5,000 cells/plate) in triplicate. After 2 weeks, the colonies were fixed in 90% ethanol and stained with 0.005% crystal violet (Sigma). The colony forming units with more than 100 cells were counted using a light microscope.

Assay [11] deals with phosphorylated EGFR (p-EGFR). In words: Western blot of phosphorylated EGFR in HCC827 cells. As to conditions: gefitinib-sensitive HCC827 cells, 12 h. It counts as cell-based. As to the method:
as §2

The mark [12] stands for this setting: L858R/T790M-EGFR harboring NSCLC cells.

T1 sequence (P00533 25-1210): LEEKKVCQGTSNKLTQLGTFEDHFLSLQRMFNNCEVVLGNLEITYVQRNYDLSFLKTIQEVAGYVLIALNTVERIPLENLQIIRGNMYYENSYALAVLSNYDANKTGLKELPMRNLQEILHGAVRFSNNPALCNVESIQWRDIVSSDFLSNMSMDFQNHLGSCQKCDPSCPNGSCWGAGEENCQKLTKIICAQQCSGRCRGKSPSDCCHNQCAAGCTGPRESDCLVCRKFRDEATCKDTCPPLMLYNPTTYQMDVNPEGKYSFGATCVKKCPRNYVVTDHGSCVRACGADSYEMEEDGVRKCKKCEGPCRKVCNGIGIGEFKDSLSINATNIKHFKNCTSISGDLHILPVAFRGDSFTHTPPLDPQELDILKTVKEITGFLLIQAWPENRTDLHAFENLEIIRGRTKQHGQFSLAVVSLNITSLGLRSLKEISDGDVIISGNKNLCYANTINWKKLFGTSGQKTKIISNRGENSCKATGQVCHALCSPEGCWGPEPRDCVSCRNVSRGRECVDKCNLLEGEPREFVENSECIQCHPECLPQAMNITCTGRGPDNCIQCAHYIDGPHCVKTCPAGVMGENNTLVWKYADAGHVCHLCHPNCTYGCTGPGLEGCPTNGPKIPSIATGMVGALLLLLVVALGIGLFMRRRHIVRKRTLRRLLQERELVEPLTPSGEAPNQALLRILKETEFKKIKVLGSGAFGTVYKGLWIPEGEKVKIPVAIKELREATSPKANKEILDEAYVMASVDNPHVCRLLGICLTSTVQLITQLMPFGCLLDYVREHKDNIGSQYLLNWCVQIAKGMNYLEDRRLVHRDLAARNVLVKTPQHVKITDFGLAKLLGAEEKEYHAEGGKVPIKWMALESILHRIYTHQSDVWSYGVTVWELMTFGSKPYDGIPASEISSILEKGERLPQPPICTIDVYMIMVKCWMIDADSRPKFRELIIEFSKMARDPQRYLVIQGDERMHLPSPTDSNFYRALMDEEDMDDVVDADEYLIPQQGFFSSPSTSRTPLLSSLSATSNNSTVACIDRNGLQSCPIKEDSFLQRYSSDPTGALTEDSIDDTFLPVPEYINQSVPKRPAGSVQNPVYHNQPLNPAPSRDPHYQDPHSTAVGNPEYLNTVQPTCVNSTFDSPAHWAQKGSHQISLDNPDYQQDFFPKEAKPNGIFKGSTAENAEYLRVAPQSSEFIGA

`COc1cc2c(Nc3ccc(Br)c(C(F)(F)F)c3)ncnc2cc1OCCCN1CCCCC1` [V1802]: the 50% inhibitory concentration (IC50) is 0.623 µM in assay [1] and 7.8 µM in [2] (setting [12]).
As to `COc1cc2c(Nc3cc(C(F)(F)F)ccc3Cl)ncnc2cc1OCCCn1cnnn1` [V1303], the IC50 in assay [1] and in assay [2] (setting [12]) was > 10 µM in each case.
Turning to `COc1cc2c(Nc3ccc4nc(C(F)(F)F)[nH]c4c3)ncnc2cc1OCCCN1CCCCC1` [V1804], the IC50 in [1] is 2 µM; in [2] (setting [12]), > 10 µM.
As to `COc1cc2c(Nc3cc(C(F)(F)F)ccc3Cl)ncnc2cc1OCCCN1CCCCC1` [V1808], the values for the concentration for half-maximal inhibition (IC50) in [1] and in [2] (setting [12]) were 2.67 µM and 18.2 µM, respectively.
For `COc1cc2c(Nc3cc(C(F)(F)F)ccc3Br)ncnc2cc1OCCCN1CCCCC1` [V1801, N-(2-bromo-5-(trifluoromethyl)phenyl)-6-methoxy-7-(3-(piperidin-1-yl)propoxy)quinazolin-4-amine], the “inhibition of proliferation of A549 cells” value in [3] is “significant inhibitory effects”. Also, the Noxa protein level entry in [4] was “markedly up-regulated”. In addition, the induction of apoptosis entry in [5] and in [9] was “induced apoptosis” each time. For the same molecule, the 50% inhibitory concentration (IC50) in assay [1] came to 0.702 µM; in assay [2] (setting [12]), 3 µM. In addition, in assay [6], the tumor growth entry is listed as “significantly inhibited tumor growth”. Also, the “Noxa expression in tumor samples” value in [6] (Western blot, compared with vehicle or gefitinib control mice) was “up-regulated”. The “inhibition of proliferation of NCI-H1975 cells” value in assay [2] (MTT assay, 48 h, dose-dependent) is listed as “significant inhibitory effects”. Besides, the “combination index (CI)” value in [7] (V1801 (2 µM) combined with bortezomib 10 to 15 nM, CI<1 indicates synergism) is reported as “less than 1”. The “down-regulation of phosphorylated EGFR (p-EGFR)” value in [8] is given as “failed to down-regulate”. The “clonogenic activity of NCI-H1975 cells” value in assay [10] is recorded as “drastically inhibited”. Also, the “de-phosphorylation of p-EGFR” value in assay [11] is “not”.
Consider `COc1cc2ncnc(Nc3ccc(F)c(Cl)c3)c2cc1OCCCN1CCOCC1` [Gefitinib, N-(3-chloro-4-fluoro-phenyl)-7-methoxy-6-(3-morpholin-4-ylpropoxy) quinazolin-4-amine, reference compound], for which, in assay [4], the Noxa protein level result is listed as “failed to up-regulate”. Also, the tumor growth result in [6] was “does not show therapeutic benefit”.
With `CCCCCCc1cn(CCCOc2cc3ncnc(Nc4cc(C(F)(F)F)ccc4Cl)c3cc2OC)nn1` [V1302], the IC50 in assay [1] and in assay [2] (setting [12]) was > 10 µM throughout.
Take `COc1cc2c(Nc3cc(C(F)(F)F)ccc3Cl)ncnc2cc1OCCCC1CCCCC1` [V1806]: the IC50 in assay [1] and in assay [2] (setting [12]) was > 10 µM throughout.
On to `C=CCOc1cc2ncnc(Nc3cc(C(F)(F)F)ccc3Cl)c2cc1OC` [V1304], for which the IC50 in [1] was > 10 µM.
Turning to `COc1cc2c(Nc3cc(C(F)(F)F)cc(C(F)(F)F)c3)ncnc2cc1OCCCN1CCCCC1` [V1807], the IC50 in [1] was > 10 µM; in assay [2] (setting [12]), 7.5 µM.
Take `COc1cc2c(Nc3cc(C(F)(F)F)ccc3Cl)ncnc2cc1OCCCN1CCOCC1` [V1305]: the IC50 in [1] was > 10 µM.
The same measure, in the same setting: the result for `COc1cc2c(Nc3cc(C(F)(F)F)ccc3Cl)ncnc2cc1OCCN1CCCCC1` [V1306] reads > 10 µM.
Turning to `CC(C)C[C@H](NC(=O)[C@H](Cc1ccccc1)NC(=O)c1cnccn1)B(O)O` [bortezomib, reference compound], the “enhancement of V1801-caused inhibition of cell proliferation” value in assay [7] (bortezomib 10 to 15 nM with V1801 2 µM, MTT) is reported as “significantly enhanced”.
Regarding `COc1cc2c(Nc3ccc4c(C(F)(F)F)cc(=O)oc4c3)ncnc2cc1OCCCN1CCCCC1` [V1803], in assay [2] (setting [12]), the “IC50 NCI-H1975 cells” value is recorded as “Insoluble”.
Take `COc1cc2c(Nc3cc(C(F)(F)F)ccc3F)ncnc2cc1OCCCN1CCCCC1` [V1805]: the IC50 in assay [1] is 0.12 µM; in assay [2] (setting [12]) it was > 10 µM.
Taken in the same sequence, the figures for `COc1cc2c(Nc3cc(C(F)(F)F)ccc3Cl)ncnc2cc1OCCCN=[N+]=[N-]` [V1301] were > 10 µM and > 10 µM.
